Experimental data published in US20170115276A1, “SPECIFIC MODULATORS OF CONNEXIN HEMICHANNELS” (PONTIFICIA UNIVERSIDAD CATÓLICA DE CHILE, priority 2014, published 2017).
pIC50: −log10 of the molar value.

Assays:
[1] = test system: hemichannels formed by connexins (26 or 43); assay: In vitro test of blocking the opening/activation of hemichannels; permeability tracer (ethidium) uptake in transfected HeLa cells; type: cell-based, Mouse; conditions: for % Inhibition Hemichannel activity (Cx26 o 43): inhibition of the permeability tracer at a concentration of 5 μM, HeLa cells transfected with connexins 26 or 43
Experimental: The compounds are tested in experiments based on cells that are deficient in the expression of hemichannels and transfected with different connexins in order to evaluate and/or confirm their capacity of modulating the transport through the cellular membrane. The transport of permeability tracing molecules is evaluated and compared with the inhibitors of channels formed by connexins known, such as beta glycyrrhetinic acid (BGA) and carbenoxolone (CBX).
(§1) The cells are incubated in an extracellular medium without divalent cations in order to increase the opening probability of hemichannels formed by connexins. In addition, as negative control parental cells not expressing hemichannels and cells transfected with panexine 1 and mechanically stimulated to induce the opening of the hemichannels formed by panexine 1.
In vitro test of blocking the opening/activation of hemichannels formed by connexins (26 or 43).
The capacity of the different tracing molecules was tested in vitro to evaluate the capacity of the compounds of reducing the transport of these molecules using the HeLa cells transfected with connexins 26 or 43.
(§2) […] HeLa cells transfected with connexins 26 or 43 are used. In order to evaluate the activity of each compound over the connexin hemichannels, 10^3 HeLa cells transfected with connexins are shown by well in multi-well ([…]) plates 24 h before each experiment. Then, the cells are washed in a Locke solution that contains normal levels of divalent cations (Ca^2+ and Mg^2+) or a cation-free divalent Locke solution that contains 5 μm of ethidium bromide. Parallel to this, the cells are treated with different concentrations of each candidate compound and incubated for 5 min.
(§3) As indicated by the scheme of FIG. 2, the HeLa cells transfected with connexin 43 (Cx43) are shown in multi-well (96) plates and after 24 h the ethidium uptake is evaluated in the presence of cation free solution (DCFS) in the presence or absence of the compound in question. The ethidium uptake is evaluated as the fluorescence emitted measured with a fluorometer. If the value of fluorescence in the presence of the inhibitor is equal or close to that measured in cells bathed with a solution that contains divalent cations, the compound corresponds to an inhibitor of hemichannels formed by connexins. On the contrary, if the fluorescence value emitted by cells exposed to a possible inhibitor in DCFS is equal to that of cells bathed only with DCFS (without the compound in question), the compound is not an inhibitor of hemichannels formed by connexins. The same test is performed with different concentrations of each compound in order to determine the minimum effective concentration (EC50).

[2] = biological target: T1, hemichannels formed by panexine 1 (Panx1) (Homo sapiens, UniProt Q96RD7); assay: Functional status of panexine 1 hemichannels activated by mechanic stress; type: cell-based; conditions: for effect on hemichannels formed by panexines (in words): concentration not given
T1 construct: expressed in transfected cells
Experimental: FIG. 7. Functional status of the hemichannels formed by panexine1 (Panx1) driven by mechanic stress.
as §1
Therefore, the compound is an inhibitor of hemichannels formed by highly specific conexins.

[3] = biological target: T2, gap junction channels formed by connexin 43 (Mus musculus, UniProt P23242); assay: Cellular coupling assessed with the transfer of ethidium in HeLa-Cx43 cells; type: cell-based; conditions: for effect on gap junction channels (in words): connexin isoform and concentration not stated
T2 construct: expressed in transfected cells; host or cells: HeLa
Experimental: FIG. 6. Cellular coupling assessed with the transfer of ethidium. A. Effect of the different inhibitors in HeLa-Cx43 cells (transfected with connexin 43). B. Cellular coupling index.
(§4) The molecules that inhibit the hemichannels formed by connexins are evaluated by their action on the hemichannels formed by panexine 1. The molecules inhibiting the hemichannels formed by connexins in the nanomolar range are studied as possible inhibitors of intercellular binding channels using the coupling technique to dyes and through electrophysiology using double fixing of voltage.

[4] = biological target: T3, hemichannels formed by connexin 43 (Mus musculus, UniProt P23242); assay: Unit currents of hemichannels in HeLa cells bathed in saline solution without Ca2+; type: cell-based; conditions: 10 nM
T3 construct: expressed in transfected cells; host or cells: HeLa
From the text: FIG. 4. Unit streams of the hemichannels formed by connexin 43 in HeLa cells bathed in saline solution without calcium ion (or Ca^2+) and in the presence of EGTA.
Should the molecules not inhibit the intercellular channels formed by connexins in the millimolar range and not affect the hemichannels formed by panexine 1, its inhibiting effect of currents of hemichannels formed by connexins using the voltage fixing methodology in the modality of full cell.
The unit currents of the hemichannels formed by connexin 43 are very frequent in the HeLa cells bathed with a saline solution without the calcium ion (or Ca^2+) (see FIG. 4, the two upper tracings).

[5] = biological target: T3, hemichannels formed by connexin 43; assay: Ethidium uptake in HeLa Cx43-EGFP cells induced by divalent cation free solution (DCFS); type: cell-based; conditions: for ethidium uptake speed or rate by minute (dye uptake) induced by DCFS: 10 nM
Experimental: FIG. 3. Ethidium uptake in HeLa Cx43-EGFP. Effect of DCFS. A: Cells in culture. B: Ethidium uptake chart in HeLa Cx43-EGFP. C: extracelular DCSF induces the inlet of ethidium in Cx43; the effect of DCSF is shown, which was blocked by the inhibiting molecule (MX) (10 nM), (P<0.05, n=4).
as §2
as §3, with “The same test is performed with different concentrations of each compound in order to determine the minimum effective concentration (EC50).” left out
In FIG. 3, the upper left panel (A) corresponds to a phase microphotograph, where the HeLa cells can be noted that express connexin 43 conjugated with green fluorescent protein (EGFP) present in the microscopic field. […] Clearly, the inhibiting molecule inhibits the activity of hemichannels evaluated as dye uptake.

[6] = biological target: T4, gap junction channels formed by connexin 26 (Mus musculus, UniProt Q00977); assay: Incidence of cellular coupling evaluated with microinjections of Lucifer yellow; type: cell-based; conditions: 1 nM; Lucifer yellow microinjection
T4 construct: expressed in transfected cells; host or cells: HeLa
Experimental: FIG. 5. Incidence percentage of coupling according to the time.
as §4
FIG. 5 depicts that the cells transfected with connexin 26 are very well coupled to gap junction channels. The incidence of the cellular coupling evaluated with microinjections of Lucifer yellow is close to 100% (black boxes).

[7] = in vitro hemichannel blocking, connexins 26 or 43

T1 sequence (Q96RD7 whole entry, species assumed): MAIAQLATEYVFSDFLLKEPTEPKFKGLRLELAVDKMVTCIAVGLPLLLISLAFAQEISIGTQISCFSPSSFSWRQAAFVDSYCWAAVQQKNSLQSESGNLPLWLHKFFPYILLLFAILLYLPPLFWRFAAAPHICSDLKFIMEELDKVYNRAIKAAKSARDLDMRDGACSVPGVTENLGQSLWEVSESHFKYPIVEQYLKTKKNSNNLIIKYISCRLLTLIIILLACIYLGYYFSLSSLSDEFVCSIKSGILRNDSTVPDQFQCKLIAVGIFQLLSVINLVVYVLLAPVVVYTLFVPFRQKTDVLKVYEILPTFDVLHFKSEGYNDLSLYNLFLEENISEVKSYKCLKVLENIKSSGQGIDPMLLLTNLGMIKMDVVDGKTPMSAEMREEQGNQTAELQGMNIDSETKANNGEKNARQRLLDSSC
T2 sequence (P23242 whole entry, canonical isoform): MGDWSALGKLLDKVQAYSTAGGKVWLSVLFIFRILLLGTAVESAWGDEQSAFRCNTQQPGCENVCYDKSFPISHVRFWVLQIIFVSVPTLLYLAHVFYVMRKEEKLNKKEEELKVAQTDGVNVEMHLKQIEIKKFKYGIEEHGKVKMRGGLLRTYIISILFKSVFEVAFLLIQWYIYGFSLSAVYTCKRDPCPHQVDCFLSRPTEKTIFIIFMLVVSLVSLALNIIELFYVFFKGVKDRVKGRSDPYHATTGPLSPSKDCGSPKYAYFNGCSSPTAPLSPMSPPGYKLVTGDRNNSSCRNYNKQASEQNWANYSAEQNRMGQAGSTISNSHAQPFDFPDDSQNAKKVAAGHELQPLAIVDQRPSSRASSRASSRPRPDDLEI
T3 sequence (P23242 whole entry): as the sequence (P23242 whole entry, canonical isoform) above

## Clc1ccc(N2CCN(CCCN3CCN(c4ccc(Cl)cc4)CC3)CC2)cc1 [Example 2 (B), 1,3-bis(4-(4-chlorofenil)piperazin-1-il)propane]
[1]
  % Inhibition Hemichannel activity (Cx26 o 43): 20%

## CC1(C)[C@@H](OC(=O)CCC(=O)O)CC[C@]2(C)[C@H]3C(=O)C=C4[C@@H]5C[C@@](C)(C(=O)O)CC[C@]5(C)CC[C@@]4(C)[C@]3(C)CC[C@@H]12 [carbenoxolone, reference compound]
[2]; 5 μm
  functional status of Panx1 hemichannels activated by mechanic stress: totally blocked

## C#C[C@]1(O)CC[C@H]2[C@@H]3CC=C4C[C@@H](OC(=O)CCC5CCCCC5)CC[C@]4(C)[C@H]3CC[C@@]21C [Example 6 (F), (3S,8R,9S,10R,13S,14S,17R)-17-ethynil-17-hydroxi-10,13-dimethyl-2,3,4,7,8,9,10,11,12,13,14,15,16,17-tetradecahydro-1H-ciclopenta[a]fenantren-3-yl 3-ciclohexilpropanoate]
[1]
  % Inhibition Hemichannel activity (Cx26 o 43): 0%

## O=C(O[C@@H](C(=O)c1ccc(Cl)cc1)c1ccccc1)c1ccc2ccccc2n1 [Example 1 (A), (R)-2-(4-chlorofenil)-2-oxo-1-fenilethylquinoline-2-carboxylate]
[2]
  effect on hemichannels formed by panexines (in words): do not affect
[1]
  inhibition of hemichannels formed by connexins (in words): potent inhibitors
  % Inhibition Hemichannel activity (Cx26 o 43): 0%
[3]
  effect on gap junction channels (in words): do not affect

## O=C(O)C(Oc1ccc(-c2ccccc2)cc1)Oc1ccc(-c2ccccc2)cc1 [Example 3 (C), Acetic 2,2-bis([1,1′-bifenil]-4-iloxi) acid]
[1]
  % Inhibition Hemichannel activity (Cx26 o 43): 0%

## C[C@]12C[C@@H](F)C(=O)C[C@@H]1CC[C@@H]1[C@@H]2CC[C@]2(C)[C@@H](OC(=O)c3ccccc3)CC[C@@H]12 [Example 4 (D), (2R,5S,8R,9S,10S,13S,14S,17S)-2-fluoro-10,13-dimethyl-3-oxohexadecahydro-1H-ciclopenta[a]fenantren-17-il benzoate]
[2]
  effect on hemichannels formed by panexines (in words): do not affect
[1]
  inhibition of hemichannels formed by connexins (in words): potent inhibitors
  % Inhibition Hemichannel activity (Cx26 o 43): 100%
[1]; [7]
  pIC50: 7.70
  efficacy: 100%
[3]
  effect on gap junction channels (in words): do not affect

## O=C(O[C@@H](C(=O)c1ccc(Cl)cc1)c1ccccc1)c1ccc2ccccc2n1 [compound 4, (R)-2-(4-chlorofenil)-2-oxo-1-fenilethlyquinoline-2-caroxilate]
[2]; 100 nM
  functional status of Panx1 hemichannels activated by mechanic stress: not inhibited
[4]
  activity (unit currents) of the hemichannels formed by connexin 43: drastically inhibited
[3]; 1 nM, ethidium transfer, HeLa-Cx43
  cellular coupling mediated with gap junction channels formed by connexin 43: does not inhibit
[5]
  ethidium uptake speed or rate by minute (dye uptake) induced by DCFS: completely inhibited
[5]; listed as MX
  ethidium uptake speed or rate by minute (dye uptake) induced by DCFS: blocked
[5]; after 10 nM
  reversal of the inhibition with the washing of DCFS: partially reversed
[6]
  coupling incidence, gap junction channels formed by connexin 26: does not significantly reduce

## Cc1cc(N2CCOCC2)nc2ccc(Cc3ccc4nc(N5CCOCC5)cc(C)c4c3)cc12 [Example 7 (G), bis(4-methyl-2-morfolinquinoline-6-yl)methane]
[1]
  % Inhibition Hemichannel activity (Cx26 o 43): 0%

## CC(=O)O[C@H]1CC[C@@]2(C)[C@@H](CC[C@@H]3[C@@H]2CC[C@]2(C)[C@@H](OC(=O)C4CCCCC4)CC[C@@H]32)C1 [Example 5 (E), (3S,5S,8R,9S,10S,13S,14S,17S)-3-acetoxi-10,13-dimethylhexadecahydro-1H-ciclopenta[a]fenantren-17-il ciclohexanocarboxilate]
[1]; [7]
  efficacy: 100%
[1]
  % Inhibition Hemichannel activity (Cx26 o 43): 100%
